According to PMC3673472, “Structural and functional insight into the universal stress protein family” (Evolutionary Applications, 2013):

Assays:
NE1028 = biological target: T1, NE1028 (Nitrosomonas europaea, UniProt Q82VN8); experiment: X-ray crystal structure of the complex ([…] Å); details: cocrystallised with 10 mM AMP, pH 7.0, then soaked with 10 mM AMP for 24 h; ATP-binding site
T1 construct: full-length, N-terminal His6-TEV tag cleaved; wild type (not SeMet) in the AMP complex; homodimer

AF0826 = biological target: T2, AF0826 (Archaeoglobus fulgidus, UniProt O29432); experiment: X-ray crystal structure of the complex ([…] Å); details: SeMet crystals (pH 5.5) soaked with a cocktail of adenine, adenosine, AMP, ADP, ATP, dAMP, cAMP, ADP-ribose; ligand identified from structure; ATP-binding site
T2 construct: gene AF_0826; N-terminal His6-TEV tag kept; selenomethionine-substituted; homodimer; strain printed only for AF1760 of the same species
T2 sequence (O29432 entry or part of it): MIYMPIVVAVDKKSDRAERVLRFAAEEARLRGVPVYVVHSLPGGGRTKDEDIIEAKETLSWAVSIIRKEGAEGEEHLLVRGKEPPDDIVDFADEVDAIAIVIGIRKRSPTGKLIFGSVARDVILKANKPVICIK

T1 sequence (Q82VN8 entry or part of it): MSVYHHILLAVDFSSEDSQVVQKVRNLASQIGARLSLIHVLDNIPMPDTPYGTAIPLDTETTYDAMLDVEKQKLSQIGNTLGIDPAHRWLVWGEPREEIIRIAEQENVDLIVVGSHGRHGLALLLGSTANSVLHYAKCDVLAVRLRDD

Structure (SMILES)	X-ray crystal structure of the complex (2.00 Å) (NE1028)	X-ray crystal structure of the complex (2.10 Å) (AF0826)
Nc1ncnc2c1ncn2[C@@H]1O[C@H](COP(=O)(O)O)[C@@H](O)[C@H]1O [AMP]	Our structure of NE1028–AMP confirms that the protein can bind at least one molecule	–
Nc1ncnc2c1ncn2[C@H]1C[C@H](O)[C@@H](COP(=O)(O)O)O1 [dAMP]	–	we obtained the structure of AF0826 with dAMP bound in the vicinity
